This is an account of results in US20050271588A1, “Liposome targeting of matrix metalloproteinase inhibitors” (priority 2001, published 2005).

Positions of bridges follow the written chain, without caps; N, C: chain ends. Residues, ends and D or L forms follow the SMILES beside them.

Data set [1] has as its system tumor. Particulars: mouse models; cited from earlier work.
In data set [2] the test system is endothelial and tumor cell migration. Particulars: cited from earlier work.
Data set [3] is described as follows: Trp quenching by I- (Stern-Volmer). The note with it: I- quencher. The format is physicochemical. As for the experimental part: The extent of exposure of Trp to the aqueous phase was studied using I— as a collisional quencher (Lakowicz, 1999). The extent of quenching was calculated by using the equation: F0/F=1+k[Q]=1+kqτ0[Q] where F0 and F are Trp fluorescence intensities at 345 nm in the absence and presence of the quencher, Q, τ0 is Trp fluorescence lifetime in the absence of the quencher, k is the Stern-Volmer constant (obtained from the slope of the linear fit of the data). Fluorescence of Trp in CTT (5 μM) and its quenching were measured in the absence and presence of POPC/POPE (80:20, mol/mol) LUVs (final lipid concentration of 0.5 mM). The results were corrected for background caused by PBS and liposomes. Assay for lipid mixing. The ability of the CTT, CLP, STT, and CWL peptides to induce liposome fusion was assessed by measuring lipid mixing, as described earlier (Struck et al., 1981). In brief, NBD-PE (X=0.01) and DPPRho (X=0.01) were incorporated into liposomes (POPC/POPE, 78/20, mol/mol). Due to the spectral overlap of NBD-PE (donor) emission and DPPRho (acceptor) absorption resonance energy transfer between these dyes is highly efficient. As liposomes containing NBD-PE and DPPRho are mixed with non-labeled liposomes, fusion is observed as an increase in the emission intensity of NBD-PE due to the dilution of probes. […] All fluorescence measurements were done at 37° C.

For data set [4], the system named is U937 cells. Briefly: Uptake of liposome-encapsulated rhodamine B by U937 cells. The class given is cell-based. The protocol: In another series of experiments the water-soluble fluorescent marker rhodamine B was encapsulated into liposomes and its uptake by cells was measured. Samples for rhodamine B uptake were prepared by mixing 60 μl of POPC/POPE (80/20, mol/mol, one mM) liposomes containing 10 μM rhodamine B to 300 μl of DMEM medium supplemented with 10% fetal bovine serum, Glutamax I, penicillin 100 U/ml and streptomycin 0.1 mg/ml. Peptides were then added to obtain a final concentration of […]. Ten μl (10^5 cells) of medium containing the indicated cells were combined with the LUVs. After an incubation for 15 min at 37° C. or +4° C. liposomes not bound to the cells were removed from 96-well plates by rinsing three times with cold PBS. The +4° C. temperature served as a control for non-endocytotic liposome uptake by cells (Oess and Hildt, 2000). The relative amount of rhodamine B associated with the cells was determined using microplate reader with excitation at 535 nm and emission at 595 nm.
We also preincubated cells with phorbol ester (TPA) (50 nM). Preincubation times varied from 15 to 75 min. Treatment of cells by phorbol ester (TPA) increases both expression and secretion of MMP-9 (Toth et al., 1997). Results are presented as RFI=I/I0, where RFI is relative fluorescence intensity, I0 is the emission intensity for the control, 2 μM rhodamine B in LUVs without the peptides, and I is the rhodamine emission for the peptide-liposome complexes taken up by the cells. […] M-17 inhibits the binding of MMP-9 to the substrate and this inhibition is expected to be concentration dependent. It is not known if rabbit polyclonal antibody blocks human MMP-2 (Murphy et al., 1994). Final concentrations of the indicated peptide, […] were 85 μM, 0.2 mM, 20 μg/ml, and 0.4 μM, respectively.
Cell cultures and fluorescence microscopy. U937 (ECACC 85011440), HT 1080 (ECACC 85111505), and CHO (ECACC 85050302) cells were cultured in RPMI or DMEM medium supplemented with 10% fetal bovine serum, Glutamax I, penicillin (100 U/ml), and streptomycin (0.1 mg/ml). Uptake of rhodamine B containing liposomes by the cultured cells was verified by fluorescence microscopy. An inverted fluorescence microscope (Zeiss IM 35) equipped with Nikon extra long working distance objectives (20×) and (40×) were used. Samples were prepared as described for the rhodamine uptake assay, with slight modifications. Accordingly, instead of washing, U937, HT 1080, and CHO cells with the rhodamine-containing liposomes and in cell culture medium were transferred into Nunclon 48 plate wells. Excitation and emission wavelengths were selected by suitable bandpass filters (Melles-Griot) transmitting in the range 535 nm and >600 nm, respectively. Fluorescence images were viewed with a Peltier-cooled digital camera (C4742-95, Hamamatsu, Japan) connected to a computer and operated by software (Hipic 5.0) provided by the instrument manufacturer.

On to `CC(C)C[C@@H]1NC(=O)[C@H]([C@@H](C)O)NC(=O)[C@H](Cc2ccccc2)NC(=O)CNC(=O)[C@H](Cc2c[nH]c3ccccc23)NC(=O)[C@H](Cc2c[nH]cn2)NC(=O)[C@H]([C@@H](C)O)NC(=O)[C@H]([C@@H](C)O)NC(=O)[C@@H](N)CSSC[C@@H](C(=O)O)NC1=O` [CTT] (H-CTTHWGFTLC-OH; disulfide 1-10; N-terminus and C-terminus assumed), for which the “Tumor progression in vivo” value in data set [1] is reported as “inhibited”. Besides, the “Endothelial and tumor cell migration in vitro” value in data set [2] is “inhibited”. Besides, the Stern-Volmer constant was found to be 0.0087 in data set [3] (absence of liposomes) and 0.0034 in data set [3] (presence of liposomes). The “Enhancement of uptake of liposome-encapsulated rhodamine vs liposomes lacking peptide” value in data set [4] (U937, fluorescence plate-reader) is on record as 3.6 fold. In addition, the “Rhodamine intake, fluorescence microscopy” value in data set [4] (U937, liposomes with vs without CTT) is listed as “enhanced”. For the same compound, in data set [4] (no liposomes), the “Uptake of free rhodamine B” value is on record as “did not promote”.
